Measurements as given in the supplement of paper PMC11451515.

System: P12-Ichikawa
Test: cell viability relative to DMSO control; higher = less cytotoxic
Conditions: 48 h
Method in brief: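 Before seeding, each leukemia line was adapted for at least four passages in each medium. NOMO1 or SEM cells (500 cells/well) and P12-Ichikawa cells (1000 cells/well) went into 1536-well plates at 5 μl, then received library compounds in DMSO by pin dosing across 11 threefold concentrations, 47 μM to 0.79 nM. Readout was CellTiter-Glo One luminescence after 48 h at 37°C, and viability is given as a per-plate percentage of DMSO wells, with cell-free wells as background.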

[1] = HPLM + 10% dialyzed FBS, 0.000781 µM
[2] = HPLM + 10% dialyzed FBS, 0.00234 µM
[3] = HPLM + 10% dialyzed FBS, 0.00702 µM
[4] = HPLM + 10% dialyzed FBS, 0.0211 µM
[5] = HPLM + 10% dialyzed FBS, 0.0632 µM
[6] = HPLM + 10% dialyzed FBS, 0.19 µM
[7] = HPLM + 10% dialyzed FBS, 0.569 µM
[8] = HPLM + 10% dialyzed FBS, 1.71 µM
[9] = HPLM + 10% dialyzed FBS, 5.12 µM
[10] = HPLM + 10% dialyzed FBS, 15.4 µM
[11] = HPLM + 10% dialyzed FBS, 46.1 µM
[12] = RPMI 5 mM glucose + 10% FBS, 0.000781 µM
[13] = RPMI 5 mM glucose + 10% FBS, 0.00234 µM
[14] = RPMI 5 mM glucose + 10% FBS, 0.00702 µM
[15] = RPMI 5 mM glucose + 10% FBS, 0.0211 µM
[16] = RPMI 5 mM glucose + 10% FBS, 0.0632 µM
[17] = RPMI 5 mM glucose + 10% FBS, 0.19 µM
[18] = RPMI 5 mM glucose + 10% FBS, 0.569 µM
[19] = RPMI 5 mM glucose + 10% FBS, 1.71 µM
[20] = RPMI 5 mM glucose + 10% FBS, 5.12 µM
[21] = RPMI 5 mM glucose + 10% FBS, 15.4 µM
[22] = RPMI 5 mM glucose + 10% FBS, 46.1 µM
[23] = RPMI 5 mM glucose + 10% dialyzed FBS, 0.000781 µM
[24] = RPMI 5 mM glucose + 10% dialyzed FBS, 0.00234 µM
[25] = RPMI 5 mM glucose + 10% dialyzed FBS, 0.00702 µM
[26] = RPMI 5 mM glucose + 10% dialyzed FBS, 0.0211 µM
[27] = RPMI 5 mM glucose + 10% dialyzed FBS, 0.0632 µM
[28] = RPMI 5 mM glucose + 10% dialyzed FBS, 0.19 µM
[29] = RPMI 5 mM glucose + 10% dialyzed FBS, 0.569 µM
[30] = RPMI 5 mM glucose + 10% dialyzed FBS, 1.71 µM
[31] = RPMI 5 mM glucose + 10% dialyzed FBS, 5.12 µM
[32] = RPMI 5 mM glucose + 10% dialyzed FBS, 15.4 µM
[33] = RPMI 5 mM glucose + 10% dialyzed FBS, 46.1 µM

| SMILES | cell viability [1] [%] | cell viability [2] [%] | cell viability [3] [%] | cell viability [4] [%] | cell viability [5] [%] | cell viability [6] [%] | cell viability [7] [%] | cell viability [8] [%] | cell viability [9] [%] | cell viability [10] [%] | cell viability [11] [%] | cell viability [12] [%] | cell viability [13] [%] | cell viability [14] [%] | cell viability [15] [%] | cell viability [16] [%] | cell viability [17] [%] | cell viability [18] [%] | cell viability [19] [%] | cell viability [20] [%] | cell viability [21] [%] | cell viability [22] [%] | cell viability [23] [%] | cell viability [24] [%] | cell viability [25] [%] | cell viability [26] [%] | cell viability [27] [%] | cell viability [28] [%] | cell viability [29] [%] | cell viability [30] [%] | cell viability [31] [%] | cell viability [32] [%] | cell viability [33] [%] |
| --- | --- | --- | --- | --- | --- | --- | --- | --- | --- | --- | --- | --- | --- | --- | --- | --- | --- | --- | --- | --- | --- | --- | --- | --- | --- | --- | --- | --- | --- | --- | --- | --- | --- |
| CN(C)c1ccc2cc(C(=O)N[C@@H](CCCNC(=N)CCl)C(=O)NCc3ccccc3)ccc2c1 | 103 | 113 | 105 | 113 | 112 | 103 | 108 | 107 | 104 | 93.9 | 19 | 121 | 111 | 97.9 | 115 | 106 | 116 | 122 | 116 | 104 | 93 | 9.92 | 109 | 108 | 108 | 109 | 110 | 101 | 99.6 | 97.1 | 106 | 92 | 8.85 |
| CC(C)(C)NC(=O)[C@@H]1CN(Cc2cccnc2)CCN1C[C@@H](O)C[C@@H](Cc1ccccc1)C(=O)N[C@H]1c2ccccc2C[C@H]1O.O=S(=O)(O)O | 102 | 114 | 115 | 120 | 122 | 115 | 121 | 114 | 112 | 104 | 72.6 | 92.1 | 103 | 99.2 | 111 | 116 | 116 | 116 | 117 | 109 | 98 | 66.1 | 105 | 117 | 119 | 123 | 123 | 119 | 121 | 126 | 111 | 99.4 | 59.2 |
| OCCCNc1cc(-c2ccnc(Nc3cccc(Cl)c3)n2)ccn1 | 98 | 99.8 | 107 | 109 | 110 | 113 | 65.4 | 13.6 | 10.3 | 8.26 | 7.93 | 102 | 105 | 105 | 104 | 118 | 87.9 | 55.6 | 12.1 | 7.63 | 8.26 | 5.79 | 94.9 | 106 | 106 | 119 | 113 | 100 | 43.7 | 11.9 | 10.5 | 11 | 9.06 |
| O=C(NNC(=O)c1ccc(CN[S+](=O)([O-])c2ccc(F)c(Cl)c2)cc1)c1ccccc1 | 97.4 | 106 | 104 | 99 | 109 | 107 | 107 | 109 | 113 | 105 | 113 | 99.8 | 101 | 98.7 | 96.5 | 112 | 100 | 106 | 98.6 | 91.6 | 114 | 105 | 87 | 98.3 | 98.3 | 102 | 103 | 98.1 | 102 | 103 | 103 | 107 | 101 |
| Cc1ccc(C(=O)c2cc(O)c(O)c([N+](=O)[O-])c2)cc1 | 93.6 | 93.5 | 95.5 | 103 | 101 | 104 | 104 | 102 | 90.9 | 101 | 105 | 90.2 | 88.2 | 85.9 | 85.8 | 102 | 103 | 95.1 | 94.6 | 84.3 | 102 | 102 | 82.5 | 93.4 | 95 | 91.8 | 89.3 | 93.6 | 99.2 | 91 | 84.7 | 89.5 | 91.4 |
| CCCCCCCCc1ccc(CCC(N)(CO)CO)cc1 | 113 | 111 | 113 | 104 | 108 | 112 | 101 | 107 | 76.1 | 84.1 | 7.48 | 118 | 114 | 113 | 114 | 119 | 115 | 104 | 101 | 80.8 | 60 | 3.8 | 105 | 110 | 112 | 109 | 103 | 111 | 90.2 | 114 | 87.2 | 68 | 3.18 |
| CN[C@@H]1C[C@H]2O[C@@](C)([C@@H]1OC)n1c3ccccc3c3c4c(c5c6ccccc6n2c5c31)C(=O)N[C@H]4O | 80.5 | 86.5 | 85.5 | 89.3 | 84.7 | 75.9 | 63.7 | 22.5 | 16.8 | 23.2 | 7.88 | 80 | 78 | 83.8 | 84.2 | 78.4 | 63.4 | 44.5 | 12.8 | 12.8 | 14.8 | 15 | 84.7 | 90.4 | 85.9 | 85.8 | 81.2 | 55.4 | 62 | 29 | 14 | 17.7 | 11.5 |
| O=C1NC(=O)/C(=C/c2cccc(C(F)(F)F)c2)S1 | 107 | 110 | 111 | 110 | 103 | 108 | 104 | 110 | 106 | 98 | 100 | 99.3 | 96.4 | 99.8 | 115 | 94.1 | 94.8 | 98.6 | 98.7 | 100 | 89.4 | 82.9 | 90.3 | 97.4 | 91.9 | 104 | 95.9 | 93.1 | 94.2 | 99.7 | 97.4 | 90.2 | 89.2 |
| COc1cc(-c2nn(C3CCC(N4CCN(C(C)=O)CC4)CC3)c3ncnc(N)c23)ccc1NC(=O)c1cc2ccccc2n1C (configuration not stated) | 117 | 114 | 114 | 128 | 115 | 116 | 107 | 111 | 103 | 102 | 83.9 | 110 | 114 | 118 | 115 | 113 | 117 | 109 | 102 | 113 | 115 | 100 | 109 | 110 | 119 | 117 | 114 | 106 | 110 | 109 | 110 | 103 | 97.7 |
| CC(C)C[C@H](NC(=O)[C@H](Cc1ccccc1)NC(=O)c1cnccn1)B(O)O | 96.4 | 92.9 | 106 | 106 | 4.77 | 2.92 | 2.65 | 2.46 | 1.35 | 0.316 | -0.93 | 93.4 | 103 | 107 | 101 | 4.71 | 2.56 | 2.17 | 1.91 | 1.36 | 0.651 | -0.626 | 88.6 | 105 | 99 | 102 | 4.76 | 2.71 | 2.62 | 1.7 | 1.34 | 0.782 | -0.254 |
| CCNc1cc(NC2CCC(O)CC2)nc(Nc2ccc3c(ccn3Cc3ccccc3)c2)n1 (configuration not stated) | 112 | 117 | 117 | 126 | 127 | 128 | 126 | 128 | 124 | 120 | 109 |  |  |  |  |  |  |  |  |  |  |  |  |  |  |  |  |  |  |  |  |  |  |
| COC(=O)[C@@H](N)CCCNC(=N)N[N+](=O)[O-] | 94.6 | 102 | 104 | 98.4 | 111 | 98.1 | 110 | 107 | 107 | 103 | 115 | 85.4 | 96.7 | 99 | 94 | 105 | 98.5 | 114 | 103 | 105 | 99.3 | 105 | 85.9 | 93 | 90.7 | 97.5 | 99.2 | 91.5 | 99.7 | 98.6 | 95.9 | 92 | 94 |
| O=C(CCCCCCC(=O)Nc1ccccc1)NO | 87.9 | 99.3 | 100 | 98.4 | 110 | 109 | 105 | 98.8 | 39 | 5.48 | 3.81 | 91.9 | 97 | 108 | 107 | 110 | 104 | 111 | 96.8 | 23.3 | 4.38 | 3.81 | 92.4 | 100 | 98.1 | 109 | 107 | 103 | 102 | 95.6 | 19.7 | 5.15 | 3.53 |
| N[C@@H](CC(=O)N1CCn2c(nnc2C(F)(F)F)C1)Cc1cc(F)c(F)cc1F | 100 | 105 | 104 | 113 | 109 | 104 | 102 | 103 | 98.2 | 97 | 94.7 | 91 | 103 | 97.3 | 95.8 | 99.2 | 99.7 | 92.8 |  | 95.4 | 89.5 | 88.3 | 98.4 | 94.5 | 97.3 | 100 | 100 | 84.9 | 90.9 | 89.4 | 91.4 | 91.3 | 88 |
| CCN(CC)CCN1C(=O)\C(=N/C2=CC=CC=C12)CC3=CC=C(OC)C=C3 | 107 | 111 | 110 | 114 | 119 | 114 | 120 | 113 | 109 | 114 | 113 | 93.6 | 113 | 109 | 119 | 127 | 121 | 130 | 119 | 111 | 114 | 119 | 107 | 112 | 118 | 107 | 112 | 109 | 109 | 111 | 104 | 96.5 | 96.6 |
